# Values quoted from earlier work, collected in patent US7001904B1, “Guanidine derivatives quinazoline and quinoline for use in the treatment of autoimmune diseases” (AstraZeneca AB, priority 2000, dated 2006).
# Target: EGF RTK (Homo sapiens, UniProt P00533)
# Settings: Bioorganic & Medicinal Chemistry Letters, 1997, 7, 2723–2728
# Chain of EGF RTK (P00533 25-1210): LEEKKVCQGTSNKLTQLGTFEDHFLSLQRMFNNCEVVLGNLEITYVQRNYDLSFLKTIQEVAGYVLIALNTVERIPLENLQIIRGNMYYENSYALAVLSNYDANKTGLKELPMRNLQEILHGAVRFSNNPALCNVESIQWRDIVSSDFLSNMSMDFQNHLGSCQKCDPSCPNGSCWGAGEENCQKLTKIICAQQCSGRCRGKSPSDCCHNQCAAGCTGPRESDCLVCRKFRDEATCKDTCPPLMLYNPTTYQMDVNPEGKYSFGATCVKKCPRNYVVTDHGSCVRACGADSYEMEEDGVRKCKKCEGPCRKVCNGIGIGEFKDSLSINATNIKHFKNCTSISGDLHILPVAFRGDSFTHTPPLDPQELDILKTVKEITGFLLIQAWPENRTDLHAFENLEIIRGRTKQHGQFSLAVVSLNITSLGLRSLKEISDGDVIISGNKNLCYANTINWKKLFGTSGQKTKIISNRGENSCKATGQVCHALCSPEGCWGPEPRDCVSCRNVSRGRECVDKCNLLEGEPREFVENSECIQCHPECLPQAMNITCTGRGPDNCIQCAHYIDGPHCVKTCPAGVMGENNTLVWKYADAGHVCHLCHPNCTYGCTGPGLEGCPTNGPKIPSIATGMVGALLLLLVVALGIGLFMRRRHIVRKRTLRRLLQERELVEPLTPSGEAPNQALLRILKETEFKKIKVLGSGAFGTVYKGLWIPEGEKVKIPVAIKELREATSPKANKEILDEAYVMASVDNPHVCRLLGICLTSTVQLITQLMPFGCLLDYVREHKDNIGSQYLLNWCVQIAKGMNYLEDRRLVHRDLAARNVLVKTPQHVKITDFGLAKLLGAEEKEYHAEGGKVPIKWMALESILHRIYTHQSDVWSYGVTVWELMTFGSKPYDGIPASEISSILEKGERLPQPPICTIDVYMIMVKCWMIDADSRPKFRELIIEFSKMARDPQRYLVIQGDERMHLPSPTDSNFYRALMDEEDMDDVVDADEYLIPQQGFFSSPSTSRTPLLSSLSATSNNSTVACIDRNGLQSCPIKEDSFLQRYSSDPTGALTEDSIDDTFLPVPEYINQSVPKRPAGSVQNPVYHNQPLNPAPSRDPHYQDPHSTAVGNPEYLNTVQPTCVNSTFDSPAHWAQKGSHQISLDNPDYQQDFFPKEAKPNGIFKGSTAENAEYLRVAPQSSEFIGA
smiles,measurement,value
"COc1cc2ncnc(NC(=O)Nc3ccccc3)c2cc1OC [1-(6,7-dimethoxyquinazolin-4-yl)-3-phenylurea]",EGF RTK inhibition,inactive
